According to PubChem BioAssay AID1053141 (Broad Institute, 2014):
Results filed as inconclusive are left out. The source made the active and inactive calls.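 The calls were made as follows: active = compounds lowering cell ATP signal, with AC50 no higher than twice their own top valid dose; inconclusive = flat curve with 30 to 70% signal loss, or poor fit; inactive = the rest, including signal rises.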

Tested on: not listed separately
Experiment: HEK293T cell cytotoxicity, dose response, cytotoxicity control, ATP luminescence, dry powder, set 19 (AID 1053141)
Settings: HEK293T viability, CellTiter-Glo ATP luminescence, 72 h; at 26 µM (top of the series)
In the case of `CCCC(=O)Nc1ccc2c(c1)OC[C@H](C)N(Cc1ccc(-c3ccccn3)cc1)C[C@H](C)[C@@H](OC)CN(C)C2=O`, the activity change, negative = cytotoxicity is reported as 4.89% (inactive). With `CCCNC(=O)Nc1ccc2c(c1)OC[C@H](C)N(Cc1ccc(-c3ccccn3)cc1)C[C@H](C)[C@@H](OC)CN(C)C2=O` the activity change, negative = cytotoxicity was 12.5% (inactive). With `CO[C@H]1CN(C)C(=O)c2ccc(NC(=O)NC(C)C)cc2OC[C@H](C)N(Cc2ccccc2)C[C@@H]1C` the activity change, negative = cytotoxicity was 94.8% (inactive). With `CO[C@H]1CN(C)C(=O)c2ccc(NC(=O)NC(C)C)cc2OC[C@H](C)N(Cc2ccc(-c3ccccn3)cc2)C[C@@H]1C` the activity change, negative = cytotoxicity was -6.54% (inactive). In the case of `CCCNC(=O)Nc1ccc2c(c1)OC[C@H](C)N(Cc1ccccc1)C[C@H](C)[C@@H](OC)CN(C)C2=O`, the activity change, negative = cytotoxicity is reported as 49.2% (inactive).

Same assay, conditions: HEK293T viability, CellTiter-Glo ATP luminescence, 72 h; at 50 µM (top of the series)
With `CO[C@H]1CN(C)C(=O)c2cc(NC(=O)NC(C)C)ccc2OC[C@H](C)N(Cc2cccnc2)C[C@@H]1C` the activity change, negative = cytotoxicity was 30.5% (inactive). With `CO[C@H]1CN(C)C(=O)c2cc(NC(=O)NC(C)C)ccc2OC[C@H](C)N(C(=O)c2ccc(-c3ccccn3)cc2)C[C@@H]1C` the activity change, negative = cytotoxicity was -14% (inactive). For `CO[C@H]1CN(C)C(=O)c2cc(NC(=O)NC(C)C)ccc2OC[C@H](C)N(Cc2cncnc2)C[C@@H]1C`, the activity change, negative = cytotoxicity was 24.6% (inactive). In the case of `CO[C@H]1CN(C)C(=O)c2cc(NC(=O)NC(C)C)ccc2OC[C@H](C)N(C(=O)c2ccccc2)C[C@@H]1C`, the activity change, negative = cytotoxicity is reported as 13.8% (inactive). In the case of `CO[C@H]1CN(C)C(=O)c2cc(NC(=O)NC(C)C)ccc2OC[C@H](C)N(Cc2ccncc2)C[C@@H]1C`, the activity change, negative = cytotoxicity is reported as -29.6% (inactive). For `CO[C@H]1CN(C)C(=O)c2cc(NC(=O)NC(C)C)ccc2OC[C@H](C)N(Cc2ccccn2)C[C@@H]1C`, the activity change, negative = cytotoxicity was 43.7% (inactive).

Tested on: HEK293T viability, CellTiter-Glo ATP luminescence, 72 h
Experiment: as above
Settings: not given
`CO[C@H]1CN(C)C(=O)c2cc(NC(=O)NC(C)C)ccc2OC[C@H](C)N(Cc2ccc(-c3cccnc3)cc2)C[C@@H]1C` gave an AC50 of 37.7 µM. For `CCCC(=O)Nc1ccc2c(c1)OC[C@H](C)N(Cc1ccccc1)C[C@H](C)[C@@H](OC)CN(C)C2=O`, the AC50 was > 52 µM (inactive). `CO[C@H]1CN(C)C(=O)c2cc(NC(=O)C(C)C)ccc2OC[C@H](C)N(Cc2ccc(-c3ccccn3)cc2)C[C@@H]1C` showed an AC50 of 52.3 µM. `CCC(CC)Nc1c(Nc2ccc3c(c2)C(=O)N(C)C[C@H](OC)[C@@H](C)CN(Cc2ccc(-c4ccccn4)cc2)[C@@H](C)CO3)c(=O)c1=O` gave an AC50 of 39.8 µM. With `CO[C@H]1CN(C)C(=O)c2cc(NC(=O)NC(C)C)ccc2OC[C@H](C)NC[C@@H]1C` the AC50 was > 100 µM (inactive). In the case of `CO[C@H]1CN(C)C(=O)c2cc(NC(=O)NC(C)C)ccc2OC[C@H](C)N(Cc2ccc(-c3ccncc3)cc2)C[C@@H]1C`, the AC50 is reported as 30.7 µM. `CO[C@H]1CN(C)C(=O)c2cc(NC(=O)NC(C)C)ccc2OC[C@H](C)N(Cc2ccccc2F)C[C@@H]1C` showed an AC50 of 27.4 µM. `CO[C@H]1CN(C)C(=O)c2cc(NC(=O)NC(C)C)ccc2OC[C@H](C)N(Cc2ccc(F)cc2)C[C@@H]1C` gave an AC50 of 29.7 µM. `CO[C@H]1CN(C)C(=O)c2cc(NC(=O)NC(C)C)ccc2OC[C@H](C)N(Cc2ccc(-c3ccccn3)cc2)C[C@@H]1C` showed an AC50 of 27 µM. Work on `CO[C@H]1CN(C)C(=O)c2cc(Nc3c(NC4CC4)c(=O)c3=O)ccc2OC[C@H](C)N(Cc2ccc(-c3ccccn3)cc2)C[C@@H]1C` yielded an AC50 of 15 µM. In the case of `CO[C@H]1CN(C)C(=O)c2cc(NC(=O)NC(C)C)ccc2OC[C@H](C)N(C(=O)Nc2ccc(-c3ccccn3)cc2)C[C@@H]1C`, the AC50 is reported as > 100 µM (inactive). Work on `CO[C@H]1CN(C)C(=O)c2cc(Nc3ncccn3)ccc2OC[C@H](C)N(Cc2ccc(-c3ccccn3)cc2)C[C@@H]1C` yielded an AC50 of 24.5 µM. For `CO[C@H]1CN(C)C(=O)c2cc(NC(=O)NC(C)C)ccc2OC[C@H](C)N(Cc2ccccc2)C[C@@H]1C`, the AC50 was 44.5 µM. For `CO[C@H]1CN(C)C(=O)c2cc(Nc3c(NC4CCCC4)c(=O)c3=O)ccc2OC[C@H](C)N(Cc2ccc(-c3ccccn3)cc2)C[C@@H]1C`, the AC50 was 13.8 µM. In the case of `CO[C@H]1CN(C)C(=O)c2cc(NC(=O)NC(C)C)ccc2OC[C@H](C)N(Cc2cccc(F)c2)C[C@@H]1C`, the AC50 is reported as 35.8 µM.
